From PMC10320503, “Rapid-reaction kinetics of the butyryl-CoA dehydrogenase component of the electron-bifurcating crotonyl-CoA-dependent NADH:ferredoxin oxidoreductase from Megasphaera elsdenii” (The Journal of Biological Chemistry, 2023) come the findings set out here.

Bounds are passed on as bounds.

For test [1], the target named is T1, bcd (butyryl-CoA dehydrogenase) (Megasphaera elsdenii, UniProt Q06319).
T1 construct: isolated bcd component without EtfAB, C-terminal Strep II tag (pASG-IBA3), expressed in E. coli BL21; FAD-loaded, CoA persulfide removed by dithionite
T1 sequence (Q06319 1-383): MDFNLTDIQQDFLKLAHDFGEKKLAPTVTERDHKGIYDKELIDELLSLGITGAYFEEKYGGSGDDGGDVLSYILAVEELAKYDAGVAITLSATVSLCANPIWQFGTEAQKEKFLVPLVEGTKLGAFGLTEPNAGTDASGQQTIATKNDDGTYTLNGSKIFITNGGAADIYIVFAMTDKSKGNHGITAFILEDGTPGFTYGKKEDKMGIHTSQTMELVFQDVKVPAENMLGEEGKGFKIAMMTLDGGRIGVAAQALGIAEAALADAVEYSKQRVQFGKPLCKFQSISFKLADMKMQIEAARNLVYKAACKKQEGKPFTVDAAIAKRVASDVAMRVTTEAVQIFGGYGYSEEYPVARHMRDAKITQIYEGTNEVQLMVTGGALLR
In words: UV-visible titration and EPR of the bound flavin. Type of test: binding. The following applies: dithionite titrations at pH 6.0, 7.5 and 9.0, 25 °C; EPR at 77 K.

Test [2] has as its target T1, bcd (butyryl-CoA dehydrogenase). The experiment in a line: stopped-flow reduction of bcd FAD at […] nm, hyperbolic fit of kobs versus [butyryl-CoA]. Type of test: biochemical. The settings on record: oxidized bcd 10 μM, 50 mM Tris-HCl, 150 mM NaCl, pH 7.5, 10 °C, anaerobic; reverse of the physiological direction; read-out: Kd (apparent).
Test [3] has the same target. In words: stopped-flow reoxidation of reduced bcd; charge-transfer complex absorbance. Type of test: biochemical. The following applies: dithionite-reduced bcd, 50 mM Tris-HCl, 150 mM NaCl, pH 7.5, 10 °C, anaerobic.
For test [4], the target named is T2, EtfAB, the electron-transferring flavoprotein component of the crotonyl-CoA-dependent NADH:ferredoxin … (Megasphaera elsdenii, UniProt O85692 1-338; O85691 1-270).
T2 construct: Electron-transferring flavoprotein alpha subunit (EtfA), Megasphaera elsdenii; Electron-transferring flavoprotein beta subunit (EtfB), Megasphaera elsdenii; prereduced with sodium dithionite before the assay; Plasmid derived from pASG-IBA3; also called prereduced EtfAB; source: E. coli BL21, purified (Strep-Tactin XT Superflow)
T2 sequence (looked up) 1: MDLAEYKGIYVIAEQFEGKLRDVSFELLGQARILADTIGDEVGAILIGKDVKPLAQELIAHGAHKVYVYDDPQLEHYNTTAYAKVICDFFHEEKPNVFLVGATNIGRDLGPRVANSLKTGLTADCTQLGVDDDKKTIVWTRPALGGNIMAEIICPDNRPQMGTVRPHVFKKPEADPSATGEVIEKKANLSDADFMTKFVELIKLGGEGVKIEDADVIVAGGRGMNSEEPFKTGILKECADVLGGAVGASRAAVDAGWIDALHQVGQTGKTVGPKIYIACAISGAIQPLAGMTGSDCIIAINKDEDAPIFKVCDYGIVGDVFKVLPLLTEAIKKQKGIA
T2 sequence (looked up) 2: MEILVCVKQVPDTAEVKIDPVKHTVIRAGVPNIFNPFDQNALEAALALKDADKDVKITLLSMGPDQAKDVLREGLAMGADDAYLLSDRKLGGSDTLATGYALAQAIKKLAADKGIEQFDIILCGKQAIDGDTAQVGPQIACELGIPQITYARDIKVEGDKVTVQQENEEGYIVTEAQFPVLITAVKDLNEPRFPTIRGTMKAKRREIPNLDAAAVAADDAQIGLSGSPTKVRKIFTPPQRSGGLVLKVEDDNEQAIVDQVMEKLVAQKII
In words: stopped-flow spectrophotometry (rate of electron transfer against protein concentration); prereduced EtfAB mixed with oxidized bcd, anaerobic, monitored at 450 nm; 1:1 ratio at 2 to 70 uM, or 3 uM EtfAB with 3 to 24 uM bcd; 50 mM Tris-HCl, 150 mM NaCl, pH 7.5, 25 C; Kd limit inferred from the rate constant being independent of concentration. The following applies: both partners purified.

Regarding `Cc1cc2nc3c(=O)[nH]c(=O)nc-3n(C[C@H](O)[C@H](O)[C@H](O)COP(=O)(O)OP(=O)(O)OC[C@H]3O[C@@H](n4cnc5c(N)ncnc54)[C@H](O)[C@@H]3O)c2cc1C` [FAD], in test [1], the “UV-visible titration and EPR of the bound flavin” value is listed as “the one-electron reduced FAD neutral semiquinone (FADH•) accumulates transiently”.

For the molecule `CCCC(=O)SCCNC(=O)CCNC(=O)[C@H](O)C(C)(C)COP(=O)(O)OP(=O)(O)OC[C@H]1O[C@@H](n2cnc3c(N)ncnc32)[C@H](O)[C@@H]1OP(=O)(O)O` [butyryl-CoA], the Kd in test [2] was 60 µM.

`C/C=C/C(=O)SCCNC(=O)CCNC(=O)[C@H](O)C(C)(C)COP(=O)(O)OP(=O)(O)OC[C@H]1O[C@@H](n2cnc3c(N)ncnc32)[C@H](O)[C@@H]1OP(=O)(O)O` [crotonyl-CoA]: in test [3], the “stopped-flow reoxidation of reduced bcd; charge-transfer complex absorbance” value is “indicating extremely rapid and tight binding of crotonyl-CoA to bcd”.

B1: butyryl-CoA dehydrogenase (bcd) component of EtfAB-bcd from Megasphaera elsdenii (enzyme)
chain: T1 sequence (Q06319 1-383)
notes: Butyryl-CoA dehydrogenase, Megasphaera elsdenii, locus tag Mels_2128; oxidized form in the assay; Plasmid derived from pASG-IBA3; also called oxidized bcd; source: E. coli BL21, purified (Strep-Tactin XT Superflow)
Turning to B1, the Kd in test [4] was under 2 µM.
